In patent US7348328B2, “MCH antagonists for the treatment of obesity” (Schering Corporation, priority 2001, dated 2008):

target: T1, MCH receptor (Homo sapiens, UniProt Q99705); experiment: MCH Receptor Binding Assay; conditions: Binding Activity; membranes from CHO cells expressing the MCH receptor, [125I]-MCH; read-out: MCH Ki
T1 construct: expressed in transfected cells; host or cells: CHO cells (membranes)
Description: MCH Receptor Binding Assay:
Membranes from CHO cells expressing the MCH receptor were prepared by lysing cells with 5 mM HEPES for 15 min at 4C. Cell lysates were centrifuged ([…], 15 min) and the pellet was resuspended in 5 mM HEPES. For each 96-well plate (Microlite, Dynex Technologies), 1 mg of cell membranes were incubated with 10 mg of wheat germ agglutinin SPA beads (Amersham) for 5 min at 4 C. in a volume of 10 ml of binding buffer (25 mM HEPES, 10 mM MGCl2, 10 mM NaCl, 5 mM MnCl2, 0.1% BSA). The membrane/bead mixture was centrifuged (1500×g, 3.5 min), the supernatant was aspirated, and the pellet was resuspended in 10 ml binding buffer. The centrifugation, aspiration and resuspension were then repeated. […] Nonspecific binding was determined by including 1 μM MCH in the binding reaction. The binding reaction was incubated at room temperature for 2 h. Plates were then analyzed in a TOPCOUNT microplate scintillation counter (Packard). Data was analyzed and Ki values were determined using GraphPad Prim.

T1 sequence (Q99705 whole entry): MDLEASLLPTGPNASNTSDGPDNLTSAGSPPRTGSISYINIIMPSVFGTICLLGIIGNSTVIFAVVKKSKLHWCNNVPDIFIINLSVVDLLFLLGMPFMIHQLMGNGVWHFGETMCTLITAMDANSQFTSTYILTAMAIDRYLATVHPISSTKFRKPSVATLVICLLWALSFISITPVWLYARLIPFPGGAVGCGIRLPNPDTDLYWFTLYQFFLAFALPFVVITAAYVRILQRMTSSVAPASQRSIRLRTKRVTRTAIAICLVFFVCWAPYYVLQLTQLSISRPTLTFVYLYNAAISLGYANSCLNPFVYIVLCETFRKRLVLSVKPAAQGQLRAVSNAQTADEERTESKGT

Compound | Ki [nM]
N#Cc1cccc([C@]23CC[C@@H](N(CCN4CCCC4)C(=O)Nc4cc(Cl)cc(Cl)c4)[C@H]2C3)c1 [Example 188] | 15
N#Cc1cccc([C@]23CC[C@@H](N(CCN4CCN(CC5CC5)CC4)C(=O)Nc4ccc(F)c(C(F)(F)F)c4)[C@H]2C3)c1 [Example 209] | 10
N#Cc1cccc([C@]23CC[C@@H](N(CCN4CC[C@@H](O)C4)C(=O)Nc4ccc(F)c(C(F)(F)F)c4)[C@H]2C3)c1 [Example 193] | 7.1
N#Cc1cccc([C@]23CC[C@@H](N(CCN4CCNCC4)C(=O)Nc4ccc(F)c(C(F)(F)F)c4)[C@H]2C3)c1 [Example 210] | 20
CN(C)CCN(C(=O)Nc1ccc(F)c(Cl)c1)[C@@H]1CC[C@]2(c3cccc(C#N)c3)C[C@H]12 [Example 187] | 14
N#Cc1cccc([C@@]23CCC(N(CCN4CC[C@@H](O)C4)C(=O)Nc4ccc(F)c(Cl)c4)[C@@H]2C3)c1 (some centres unmarked) [Example 190] | 13
N#Cc1cccc([C@]23CC[C@@H](N(CCCCN4CCCCC4)C(=O)Nc4ccc(F)c(C(F)(F)F)c4)[C@H]2C3)c1 [Example 227] | 1.6
N#Cc1cccc([C@]23CC[C@@H](N(CCCCN4CCOCC4)C(=O)Nc4ccc(F)c(C(F)(F)F)c4)[C@H]2C3)c1 [Example 225] | 2.6
CN1CCN(CCN(C(=O)Nc2ccc(F)c(C(F)(F)F)c2)[C@@H]2CC[C@]3(c4cccc(C#N)c4)C[C@H]23)CC1 [Example 206] | 30
CCCN1CCN(CCN(C(=O)Nc2ccc(F)c(C(F)(F)F)c2)[C@@H]2CC[C@]3(c4cccc(C#N)c4)C[C@H]23)CC1 [Example 207] | 22
N#Cc1cccc([C@]23CC[C@@H](N(CCCCN4CCCC4)C(=O)Nc4ccc(F)c(Cl)c4)[C@H]2C3)c1 [Example 196] | 3.9
CN1CCN(CCCCN(C(=O)Nc2ccc(F)c(C(F)(F)F)c2)[C@@H]2CC[C@]3(c4cccc(C#N)c4)C[C@H]23)CC1 [Example 226] | 2.2

The remaining lines, values ahead:

Ki [nM] | Compound
9 | CC(C)CN1CCN(CCN(C(=O)Nc2ccc(F)c(C(F)(F)F)c2)[C@@H]2CC[C@]3(c4cccc(C#N)c4)C[C@H]23)CC1 [Example 208]
79 | O=C(Nc1ccc(F)c(C(F)(F)F)c1)N(CCN1CC[C@@H](O)C1)[C@@H]1CC[C@]2(c3cccc(Br)c3)C[C@H]12 [Example 197]
11 | N#Cc1cccc([C@]23CC[C@@H](N(CCN4CC[C@@H](O)C4)C(=O)Nc4ccc(F)c(C(F)(F)F)c4)[C@H]2C3)c1 [Example 198]
22 | N#Cc1cccc([C@]23CC[C@@H](N(CCN4CC[C@@H](O)C4)C(=O)Nc4ccc(F)c(Cl)c4)[C@H]2C3)c1 [Example 191]

same assay, conditions: Table 1b, preferred compounds; read-out: MCH R1 Ki

Compound | Ki [nM]
CN1CCN(CCCCN(C(=O)Nc2cc(Cl)nc(Cl)c2)C2CC[C@@]3(c4ccc(C#N)cc4)CC23)CC1 (some centres unmarked) | 2
N#Cc1cccc([C@@]23CC[C@@H](N(CCCN4CC[C@@H](O)C4)C(=O)Nc4ccc(F)c(F)c4)CC2C3)c1 (some centres unmarked) | 1.2
CC1(C)[C@H]2[C@@H](CO)N(CCCCN(C(=O)Nc3ccc(F)c(C(F)(F)F)c3)[C@@H]3CC[C@@]4(c5ccc(C#N)cc5)C[C@H]34)C[C@H]21 | 8
N#Cc1cccc([C@@]23CC[C@@H](N(CCN4CC[C@@H](O)C4)C(=O)Nc4cc(Cl)cc(Cl)c4)CC2C3)c1 (some centres unmarked) | 13
N#Cc1cccc([C@]23CC[C@@H](N(CCN4CC[C@@H](O)C4)C(=O)Nc4ccc(F)c(C(F)(F)F)c4)[C@H]2C3)c1 [drawing 636] | 11
N#Cc1cccc([C@@]23CCC(N(CCN4CC[C@@H](O)C4)C(=O)Nc4cc(Cl)cc(Cl)c4)CC2C3)c1 (some centres unmarked) | 3.5
CN(C)CCN(C(=O)Nc1ccc(F)c(Cl)c1)[C@@H]1CC[C@]2(c3cccc(C#N)c3)C[C@H]12 [drawing 673] | 14
N#Cc1cccc(C23CCC(N(CCN4CCCC4)C(=O)Nc4cc(Cl)cc(Cl)c4)C2C3)c1 (centres unmarked) | 15
CN1CCN(CCCN(C(=O)Nc2ccc(F)c(Cl)c2)[C@@H]2CC[C@]3(c4cccc(C#N)c4)C[C@@H]3C2)CC1 | 4.2
N#Cc1cccc(C23CCC(N(CCN4CCCC4)C(=O)Nc4ccc(F)c(Cl)c4)C2C3)c1 (centres unmarked) | 18
N#Cc1cccc(C2=CCC(N(CCN3CCCC3)C(=O)Nc3ccc(F)c(C(F)(F)F)c3)CC2)c1 (centres unmarked) | 2.7
N#Cc1cccc([C@@]23CC[C@@H](N(CCCN4CC[C@@H](O)C4)C(=O)Nc4ccc(F)c(Cl)c4)CC2C3)c1 (some centres unmarked) [drawing 656] | 1.8
N#Cc1cccc([C@]23CC[C@H](N(CC4CCN(CC5CC5)CC4)C(=O)Nc4ccc(F)c(Cl)c4)CC2C3)c1 (some centres unmarked) | 10
O=C(Nc1ccc(F)c(C(F)(F)F)c1)N(CCN1CCCC1)C1CC=C(c2cccc(Cl)c2)CC1 (centres unmarked) | 12
N#Cc1cccc([C@]23CCC(N(CCN4CC[C@@H](O)C4)C(=O)Nc4ccc(F)c(Cl)c4)[C@H]2C3)c1 (some centres unmarked) | 13
CN1CCN(CCCCN(C(=O)Nc2ccc(F)c(Cl)c2)C2CC[C@@]3(c4ccc(C#N)cc4)CC23)CC1 (some centres unmarked) | 2.9
N#Cc1cccc([C@]23CC[C@H](N(CC4CCN(C5CCSC5)CC4)C(=O)Nc4ccc(F)c(Cl)c4)CC2C3)c1 (some centres unmarked) | 7.5

Compound | Ki [nM]
N#Cc1ccc(C2=CCC(N(CCN3CCCC3)C(=O)Nc3ccc(F)c(Cl)c3)CC2)cc1 (centres unmarked) | 11
CN1CCN(CCCN(C(=O)Nc2ccc(F)c(C(F)(F)F)c2)[C@@H]2CC[C@@]3(c4ccc(C#N)cc4)CC23)CC1 (some centres unmarked) | 3
N#Cc1cccc([C@@]23CC[C@@H](N(CCCN4CC[C@@H](F)C4)C(=O)Nc4ccc(F)c(F)c4)CC2C3)c1 (some centres unmarked) | 5
CC(=O)NC1CCN(CCCN(C(=O)Nc2ccc(F)c(F)c2)[C@@H]2CC[C@@]3(c4cccc(C#N)c4)CC3C2)C1 (some centres unmarked) | 5.8
CN1CCN(CCCN(C(=O)Nc2ccc(F)c(Cl)c2)[C@@H]2CC[C@]3(c4cccc(Cl)c4)C[C@H]23)CC1 | 15
CCOC(=O)NC1CCN(CCCN(C(=O)Nc2ccc(F)c(F)c2)[C@@H]2CC[C@@]3(c4cccc(C#N)c4)CC3C2)C1 (some centres unmarked) | 5.9
CC(=O)Nc1cccc(C23CC[C@@H](N(CCN4CC[C@@H](O)C4)C(=O)Nc4ccc(F)c(C(F)(F)F)c4)CC2C3)c1 (some centres unmarked) | 4.8
O=C(Nc1ccc(F)c(F)c1)N(CCCN1CCCC1)[C@@H]1CC[C@@]2(c3cccc(-c4ncc[nH]4)c3)CC2C1 (some centres unmarked) | 5.4
CC(C)N(CCN(C(=O)Nc1cccc(F)c1)[C@H]1CC[C@]2(c3cccc(C#N)c3)CC2C1)C(C)C (some centres unmarked) | 2.1
CCNS(=O)(=O)NC1CCN(CCCN(C(=O)Nc2ccc(F)c(F)c2)[C@@H]2CC[C@@]3(c4cccc(C#N)c4)CC3C2)C1 (some centres unmarked) | 7.1
N#Cc1cccc([C@]23CC[C@@H](N(CCN4CCCCC4)C(=O)Nc4ccc(F)c(Cl)c4)[C@H]2C3)c1 [drawing 671] | 4.1
CC(=O)Nc1cccc([C@@]23CC[C@@H](N(CCCN4CCN(C)CC4)C(=O)Nc4ccc(F)c(Cl)c4)CC2C3)c1 (some centres unmarked) | 0.9
CN1CCN(CCCCN(C(=O)Nc2ccc(F)c(Cl)c2)[C@@H]2CC[C@]3(c4cccc(C#N)c4)C[C@H]23)CC1 | 2.2
CNCCN(C(=O)Nc1ccc(F)c(Cl)c1)[C@@H]1CC[C@@]2(c3cccc(C#N)c3)CC2C1 (some centres unmarked) | 9.1
CNS(=O)(=O)NC1CCN(CCCN(C(=O)Nc2ccc(F)c(Cl)c2)[C@@H]2CC[C@@]3(c4cccc(C#N)c4)CC3C2)C1 (some centres unmarked) | 4.9
N#Cc1cccc([C@@]23CC[C@@H](N(CCN4CC[C@@H](O)C4)C(=O)Nc4ccc(F)c(C(F)(F)F)c4)CC2C3)c1 (some centres unmarked) [drawing 655] | 16

The next lines start with the values.

Ki [nM] | Compound
1.6 | CC(C)N(CCN(C(=O)Nc1cc(Cl)nc(Cl)c1)[C@@H]1CC[C@@]2(c3cccc(C#N)c3)CC2C1)C(C)CO (some centres unmarked)
3 | CN(C)CCN(C(=O)Nc1ccc(Cl)c(Cl)c1)C1CC=C(c2cccc(C#N)c2)CC1 (centres unmarked)
45 | N#Cc1cccc([C@@]23CC[C@@H](N(CC4CCN(S(=O)(=O)N5CCOCC5)CC4)C(=O)Nc4ccc(F)c(F)c4)CC2C3)c1 (some centres unmarked)
6.2 | N#Cc1cccc([C@@]23CC[C@@H](N(CCN4CC[C@@H](O)C4)C(=O)Nc4ccc(F)c(C(F)(F)F)c4)CC2C3)c1 (some centres unmarked) [drawing 651]
20 | C[S+]([O-])c1cccc(C23CCC(N(CCCN4CCCC4)C(=O)Nc4ccc(Cl)c(Cl)c4)CC2C3)c1 (centres unmarked)
1.8 | N#Cc1cccc([C@@]23CC[C@@H](N(CCCN4CC[C@@H](O)C4)C(=O)Nc4cc(F)cc(F)c4)CC2C3)c1 (some centres unmarked)
4.6 | CC(=O)Nc1cccc([C@@]23CC[C@@H](N(CCN4CCCC4)C(=O)Nc4ccc(F)c(C(F)(F)F)c4)CC2C3)c1 (some centres unmarked)
22 | CSc1cccc([C@@]23CC[C@@H](N(CCCN4CCCC4)C(=O)Nc4ccc(F)c(F)c4)CC2C3)c1 (some centres unmarked)
18 | N#Cc1cccc([C@@]23CC[C@@H](N(CCN4C[C@@H](O)[C@@H](O)C4)C(=O)Nc4ccc(F)c(Cl)c4)CC2C3)c1 (some centres unmarked)
3 | N#Cc1cccc([C@@]23CC[C@@H](N(CCCN4CC[C@@H](O)C4)C(=O)Nc4ccc(F)c(Cl)c4)CC2C3)c1 (some centres unmarked) [drawing 646]
2.8 | CC(C)N(CCN(C(=O)Nc1ccc(F)c(F)c1)C1CC[C@]2(c3cccc(C#N)c3)CC2C1)C(C)C (some centres unmarked)
3 | N#Cc1cccc([C@@]23CC[C@@H](N(CCN4C[C@H]5C[C@H]5[C@H]4CO)C(=O)Nc4cc(Cl)nc(Cl)c4)CC2C3)c1 (some centres unmarked)
11.2 | CC(C)N(CCN(C(=O)Nc1ccsc1)[C@H]1CC[C@]2(c3cccc(C#N)c3)CC2C1)C(C)C (some centres unmarked)
10.2 | CC(C)N(CCF)CCN(C(=O)Nc1cc(Cl)nc(Cl)c1)[C@@H]1CC[C@@]2(c3cccc(C#N)c3)CC2C1 (some centres unmarked)
13 | CN1CCN(CCCN(C(=O)Nc2ccc(F)c(Cl)c2)[C@@H]2CC[C@]3(c4ccc(OC(F)(F)F)cc4)C[C@H]23)CC1
1.1 | N#Cc1cccc([C@@]23CC[C@@H](N(CCCN4CCCC4)C(=O)Nc4ccc(F)c(F)c4)CC2C3)c1 (some centres unmarked)
